Structures can show the parent of a compound that is named as a salt.
Columns and labels:
[1] = test system: hypoxemic model rats; assay: Determination of oxygen partial pressure increasing action (arterial blood PaO2 gain in hypoxemic model rats); assay type: in vivo, Sprague-Dawley male rats; conditions: urethane-anesthetized rats, i.v. continuously 0.1 mg/kg/min, PaO2 measured 10 minutes after completion of administration, gain before vs after
Procedure: Determination of oxygen partial pressure increasing action
Actions of the quinazoline derivatives of the present invention to increase oxygen partial pressure in the arterial blood were determined according to the following method:
Sprague-Dawley male rats having body weights of about 250 g were anesthetized (i.p.) with urethane and cannulated to the respiratory tracts, femoral arteries and femoral veins. An olive oil-charcoal powder suspension (10 mg/ml) was introduced in an amount of 0.8 ml/kg through the respiratory tract cannulae into the lungs to cause the rats to hypoxic state (PaO2≦75 mmHg). The quinazoline derivatives listed in Table 1 were intravenously administered to these hypoxemic model rats continuously at a rate of 0.1 mg/kg/min, and arterial blood oxygen partial pressure value (PaO2) of each rat was measured at the time point of 10 minutes after completion of administration using a blood gas analyzer (Ciba Corning 800 series). Gains (APaO2) were determined based on results of PaO2 measurement made before and after administration of the test compounds.
Actions of the thienopyrimidine derivatives of the present invention to increase oxygen partial pressure in the arterial blood were determined according to the following method:
Sprague-Dawley male rats having body weights of about 250 g were anesthetized (i.p.) with urethane and cannulated to the respiratory tracts, femoral arteries and femoral veins. An olive oil-charcoal powder suspension (10 mg/ml) was introduced in an amount of 0.8 ml/kg through the respiratory tract cannulae into the lungs to cause the rats to be under hypoxic state (PaO2 Δ 75 mmHg). The thienopyrimidine derivatives listed in Table 2 were intravenously administered to these hypoxemic model rats continuously at a rate of 0.1 mg/kg/min, and arterial blood oxygen partial pressure value (PaO2) of each rat was measured at the time point of 10 minutes after completion of administration using a blood gas analyzer (Ciba Corning 800 series). Gains (ΔPaO2) were determined based on results of PaO2 measurement made before and after administration of the test compounds.

[2] = thienopyrimidine derivatives, hypoxic state (PaO2 Δ 75 mmHg) by olive oil-charcoal powder suspension
[3] = quinazoline derivatives, hypoxic state (PaO2≦75 mmHg) by olive oil-charcoal powder suspension

SMILES: C=CCNc1nc(NCCCC)c2scc(C)c2n1 [Example 81, 2-Allylamino-4-butylamino-7-methylthieno[3,2-d]pyrimidine]
- ΔPaO2 [1, 2]: 29 mmHg
- melting point: 68 to 70 °C

SMILES: C=CCNc1nc(NCCCC)nc2ccc([N+](=O)[O-])cc12 [Example 31, 4-Allylamino-2-butylamino-6-nitroquinazoline hydrochloride]
- ΔPaO2 [1, 3]: 36 mmHg

SMILES: C=CCNc1nc(NC(C)CC)c2cc([N+](=O)[O-])ccc2n1 (stereo not drawn) [Example 49, 2-Allyiamino-4-(l-methylpropylamino)-6-nitroquinazoline hydrochloride]
- ΔPaO2 [1, 3]: 32 mmHg

SMILES: C=CCNc1nc(NCC(C)(C)C)nc2ccc([N+](=O)[O-])cc12 [Example 5, 4-Allylamino-2-neopentylamino-6-nitroquinazoline]
- ΔPaO2 [1, 3]: 43 mmHg
- melting point: 167 to 168 °C

SMILES: C=CCNc1nc(NC(C)(C)C)c2scc(CC)c2n1 [Example 104, 2-Allylamino-4-t-butylamino-7-ethylthieno[3,2-d]pyrimidine]
- ΔPaO2 [1, 2]: 41 mmHg

SMILES: C=CCNc1nc(NCCCCC)nc2ccc([N+](=O)[O-])cc12 [Example 35, 4-Allylamino-6-nitro-2-pentylaminoquinazoline hydrochloride]
- ΔPaO2 [1, 3]: 34 mmHg

SMILES: C=CCNc1nc(NCC)c2scc(C)c2n1 [Example 76, 2-Allylamino-4-ethylamino-7-methylthieno[3,2-d]pyrimidine]
- ΔPaO2 [1, 2]: 33 mmHg
- melting point: 96 to 97 °C

SMILES: C=CCNc1nc(NCCC)nc2ccc([N+](=O)[O-])cc12 [Example 4, 4-Allylamino-6-nitro-2-propylaminoquinazoline]
- ΔPaO2 [1, 3]: 34 mmHg
- melting point: 197 to 198 °C

SMILES: C=CCNc1nc(NC(C)CC)c2scc(C)c2n1 (stereo not drawn) [Example 84, 2-Allylamino-7-methyl-4-(1-methylpropylamino)thieno[3,2-d] pyrimidine]
- ΔPaO2 [1, 2]: 27 mmHg
- melting point: 91 to 92 °C

SMILES: C=CCNc1nc(NC(C)C)c2cc([N+](=O)[O-])ccc2n1 [Example 28, 2-Allylamino-4-isopropylamino-6-nitroquinazoline hydrochloride]
- ΔPaO2 [1, 3]: 26 mmHg

SMILES: C=CCNc1nc(NCCOCCC)c2cc([N+](=O)[O-])ccc2n1 [Example 39, 2-Allylamino-6-nitro-4-(2-propoxyethylamino)quinazoline]
- ΔPaO2 [1, 3]: 30 mmHg
- melting point: 156 to 157 °C

SMILES: C=CCNc1nc(NCC=C)c2cc(Cl)ccc2n1 [Example 1, 2,4-Diallylamino-6-chloroquinazoline]
- ΔPaO2 [1, 3]: 35 mmHg
- melting point: 78 to 79 °C

SMILES: C=CCNc1nc(NC2CCCCC2)nc2ccc([N+](=O)[O-])cc12 [Example 7, 4-Allylamino-2-cyclohexylamino-6-nitroquinazoline]
- ΔPaO2 [1, 3]: 35 mmHg
- melting point: 183 to 184 °C

SMILES: C=CCNc1nc(NC2CCCC2)c2cc([N+](=O)[O-])ccc2n1 [Example 27, 2-Allylamino-4-cyclopentylamino-6-nitroquinazoline hydrochloride]
- ΔPaO2 [1, 3]: 35 mmHg

SMILES: C=CCNc1nc(NCCCCCCC)c2cc([N+](=O)[O-])ccc2n1 [Example 26, 2-Allylamino-4-heptylamino-6-nitroquinazoline hydrochloride]
- ΔPaO2 [1, 3]: 46 mmHg

SMILES: C=CCNc1nc(NC2CCCC2)nc2ccc([N+](=O)[O-])cc12 [Example 34, 4-Allylamino-2-cyclopentylamino-6-nitroquinazoline hydrochloride]
- ΔPaO2 [1, 3]: 32 mmHg

SMILES: C=CCNc1nc(NCCCCCCCCC)c2scc(C)c2n1 [Example 80, 2-Allylamino-4-nonylamino-7-methylthieno[3,2-d]pyrimidine]
- ΔPaO2 [1, 2]: 28 mmHg
- melting point: 65 to 66 °C

SMILES: C=CCNc1nc(NCCCCC)c2cc([N+](=O)[O-])ccc2n1 [Example 25, 2-Allylamino-6-nitro-4-pentylaminoquinazoline hydrochloride]
- ΔPaO2 [1, 3]: 46 mmHg

SMILES: C=CCNc1nc(NC(C)(C)C)c2scc(CCC)c2n1 [Example 106, 2-Allylamino-4-t-butylamino-7-propylthieno[3,2-d] pyrimidine]
- ΔPaO2 [1, 2]: 28 mmHg

SMILES: C=CCNc1nc(NC)c2scc(CCC)c2n1 [Example 107, 2-Allylamino-4-methylamino-7-propylthieno[3,2-d] pyrimidine]
- ΔPaO2 [1, 2]: 41 mmHg

SMILES: C=CCNc1nc(N(CC=C)CC=C)nc2ccc(Cl)cc12 [Example 15, 4-Allylamino-2-diallylamino-6-chloroquinazoline]
- melting point: 73 to 74 °C

SMILES: C=CCNc1nc(N(CC=C)CC=C)c2scc(C)c2n1 [Example 71, 2-Allylamino-4-diallylamino-7-methylthieno[3,2-d] pyrimidine hydrochloride]
- ΔPaO2 [1, 2]: 26 mmHg

SMILES: C=CCNc1nc(NC(C)=O)nc2ccc([N+](=O)[O-])cc12 [Example 44, 2-Acetylamino-4-allylamino-6-nitroquinazoline]
- melting point: 239 to 240 °C

SMILES: C#CCNc1nc(NCC=C)nc2c(C)csc12 [Example 99, 2-Allylamino-7-methyl-4-(2-propynylamino)thieno[3,2-d] pyrimidine]
- melting point: 95 to 96 °C

SMILES: C=CCNc1nc(NNC(C)(C)C)c2scc(C)c2n1 [Example 89, 2-Allylamino-4-(2-t-butylhydrazino)-7-methylthieno[3,2-d] pyrimidine]
- melting point: 105 to 107 °C

SMILES: C=CCNc1nc(NCCN)nc2ccc([N+](=O)[O-])cc12 [Example 20, 4-Allylamino-2-(2-aminoethylamino)-6-nitroquinazoline]
- melting point: 126 to 128 °C

SMILES: C=CCNc1nc(NC2CCCCC2)c2scc(C)c2n1 [Example 70, 2-Allylamino-4-cyclohexylamino-7-methylthieno[3,2-d] pyrimidine hydrochloride]
- ΔPaO2 [1, 2]: 42 mmHg

SMILES: C=CCNc1nc(NCCC)nc2c(C)csc12 [Example 86, 4-Allylamino-7-methyl-2-propylaminothieno[3,2-d] pyrimidine]
- melting point: 74 to 75 °C

SMILES: C=CCNc1nc(NCC(C)(C)C)c2cc([N+](=O)[O-])ccc2n1 [Example 11, 2-Allylamino-4-neopentylamino-6-nitroauinazoline]
- melting point: 216 to 217 °C

SMILES: C=CCNc1nc(NCc2ccccc2)c2cc([N+](=O)[O-])ccc2n1 [Example 12, 2-Allylamino-4-benzylamino-6-nitroquinazoline]
- melting point: 235 to 236 °C

SMILES: C=CCNc1nc(NCC=C(C)C)nc2ccc([N+](=O)[O-])cc12 [Example 58, 4-Allylamino-2-(3-methyl-2-butenylamino)-6-nitroquinazoline]
- melting point: 194 to 195 °C

SMILES: C=CCNc1nc(NCCCCCCC)nc2ccc([N+](=O)[O-])cc12 [Example 36, 4-Allylamino-2-heptylamino-6-nitroquinazoline]
- melting point: 173 to 174 °C

SMILES: C=CCNc1nc(NCC=C)c2scc(CCC)c2n1 [Example 105, 2,4-Diallylamino-7-propylthieno[3,2-d]pyrimidine]
- ΔPaO2 [1, 2]: 28 mmHg

SMILES: C=CCNc1nc(NC(=O)OCC(C)C)c2cc([N+](=O)[O-])ccc2n1 [Example 43, 2-Allylamino-4-(2-methylpropoxycarbonyl)amino-6-nitroquinazoline]
- melting point: 148 to 149 °C

SMILES: C=CCNc1nc(NCc2ccco2)nc2ccc([N+](=O)[O-])cc12 [Example 33, 4-Allylamino-2-furfurylamino-6-nitroquinazoline hydrochloride]
- ΔPaO2 [1, 3]: 42 mmHg

SMILES: C=CCNc1nc(NC(C)CC)nc2ccc([N+](=O)[O-])cc12 (stereo not drawn) (as salt: hydrochloride)
- melting point: 219 to 220 °C

SMILES: C=CCNC(=O)Nc1nc(NCC=C)nc2c(C)csc12 [Example 96, 2-Allylamino-4-(allylcarbamoyl)amino-7-methylthieno[3,2-d] pyrimidine]
- melting point: 164 to 165 °C

SMILES: C=CCNc1nc(NC(=O)NC(C)(C)C)c2cc([N+](=O)[O-])ccc2n1 [Example 40, 2-Allylamino-4-(t-butylcarbamoyl)amino-6-nitroquinazoline]
- melting point: 200 to 201 °C

SMILES: C=CCNc1nc(NC(=O)NCCCC)c2scc(C)c2n1 [Example 97, 2-Allylamino-4-(butylcarbamoyl)amino-7-methylthieno[3,2-d] pyrimidine]
- melting point: 141 °C

SMILES: CC(C)=CCNc1nc(NCC=C(C)C)c2cc([N+](=O)[O-])ccc2n1 [Example 61, 2,4-Bis(3-methyl-2-butenylamino)-6-nitroquinazoline]
- melting point: 168 to 172 °C

SMILES: C=CCNc1nc(NC(C)=O)c2cc([N+](=O)[O-])ccc2n1 [Example 42, 4-Acetylamino-2-allylamino-6-nitroquinazoline]
- melting point: 253 to 254 °C

SMILES: C=CCNc1nc(NC(=O)NC(C)(C)C)c2scc(C)c2n1 (as salt: hydrochloride)
- melting point: 192 to 194 °C
